Measurements published in patent EP0352609A1 (BIORESEARCH S.p.A., priority 1988, dated 1990).

Assays:
[1] = system: plaque-forming splenic cells (PFC); experiment: Primary antibody response against thymus-dependent antigen (PFC, Jerne plaque assay); type: in vivo, Mice B6 D2 F1; conditions: 25 gamma i.p. 6 days before immunisation
From the text: (§1) The following experimental tests were used: • 1. Primary antibody response against thymus-dependent antigen, evaluated as the number of plaque-forming splenic cells (PFC) Mice B6 D2 F1, antigen SRBC (red sheep corpuscles) Jerne N.K and Nordin A.A., Plaque formation in ager by single antibody-producing cells Science, 140, 405, 1963. Table A • 2. Delayed hypersensitivity against cell antigen (DTH) Mice B6 D2 F1, antigen SRBC (red sheep corpuscles) Lagrange P.H., Mackaness G.B and Miller T.E., potentiation of T-cell-mediated immunity by selective suppression of antibody formation with cyclophosphamide. J. Exp. Med., 139, 1529, 1974. Table B • 3. Macrophage cytotoxic activity against target tumour induced by Corynebacterium Parvum Mice C57 BL/6; tumour L1210 pretagged with ⁵¹Cr; attack:target ratio 80:1; tumouricide activity evaluated as release of tagging compound and expressed as % of specific cytotoxicity. Herscowitr H.B. et al., Eds., Manual of macrophage methodology, M. Dekker 1981. Table C • 4. Splenic NK (natural cytotoxic cell) activity potentiated with polynucleotide (Poly I:C) Mice C57 BL/6; tumour YAC-1; evaluation as in test 3. Herbeman R.B. Ed., "Natural cell-mediated immunity against tumors". Academic Press, 1980. Table D
The treatment was carried out during the inductive stage of the response.

[2] = system: antigen SRBC (red sheep corpuscles); experiment: Delayed hypersensitivity against cell antigen (DTH); type: in vivo, Mice B6 D2 F1; conditions: 1 gamma i.p. on day of immunisation
From the text: as §1, with “Table D […]” for “Table D”

Substance	% increase in PFC/spleen vs. control [1]	DTH response (Table B, continuation; column head not given) [2]
Tuftsin	65%	–
Muramyl dipeptide	–	50
